Data from EPA's ToxRefDB 2.

Tests used:
rat [1] = conditions: Multigenerational reproductive toxicity study, wistar, Oral, Feed, dose end: 3 generation
mouse [2] = conditions: Carcinogenicity, cd1, Oral, Feed, dose end: 100 week, group: systemic
rat [3] = conditions: Combined chronic toxicity/carcinogenicity, wistar, Oral, Feed, dose end: 2 year, group: systemic
dog [4] = conditions: Subchronic oral toxicity in nonrodent, beagle, Capsule, dose end: 6 month, group: systemic, systemic / organ weight / liver / relative to body weight
dog [5] = conditions: Chronic toxicity; beagle; Oral; Capsule; dose end: 52 week; group: systemic; systemic / clinical chemistry / alkaline phosphatase (alp/alk) / alkaline phosphatase (alp/alk) + systemic / organ weight / liver / nos + …
mouse [6] = conditions: Carcinogenicity; cd1; Oral; Feed; dose end: 24 month; group: systemic; systemic / in life observation / clinical signs / anogenital staining + systemic / in life observation / clinical signs / distended abdomens…
rat [7] = conditions: Combined chronic toxicity/carcinogenicity, wistar, Oral, Feed, dose end: 104 week, group: systemic
rat [8] = conditions: Prenatal developmental toxicity study, wistar, Oral, Gavage/Intubation, dose end: 16 GD
rabbit = conditions: Prenatal developmental toxicity study, dutch, Oral, Gavage/Intubation, dose end: 18 GD
mouse [9] = conditions: Carcinogenicity, other, Oral, Feed, dose end: 98 week, group: systemic
rat [10] = conditions: Multigenerational reproductive toxicity study, Oral, Feed, dose end: 3 generation, group: offspring
rat [11] = conditions: Subchronic oral toxicity in rodents, sprague dawley, Gavage/Intubation, dose end: 13 week, group: systemic
rat [12] = conditions: Combined chronic toxicity/carcinogenicity, sprague dawley, Oral, Feed, dose end: 24 month, group: systemic
mouse [13] = conditions: Carcinogenicity, cd1, Oral, Feed, dose end: 104 week, group: systemic
dog [14] = conditions: Chronic toxicity, beagle, Oral, Feed, dose end: 24 month, group: systemic
[15] = group: offspring, systemic / pathology microscopic / liver / hypertrophy
[16] = group: parental, systemic / in life observation / clinical signs / tremors
[17] = systemic / organ weight / liver / absolute
[18] = systemic / pathology gross / liver / mass + systemic / pathology gross / lung / mass + systemic / pathology microscopic / liver / …
[19] = systemic / organ weight / kidney / nos + systemic / organ weight / liver / nos + systemic / clinical chemistry / aminopyrine-n-demethylase…
[20] = systemic / in life observation / clinical signs / tremors + systemic / hematology / platelet / platelet + systemic / organ weight / kidney…
[21] = group: developmental, developmental / developmental malformation / bone / short supernumerary + systemic / in life observation / body weight / fetal weight
[22] = group: maternal, systemic / in life observation / body weight / body weight gain + systemic / in life observation / clinical signs / headflicking + systemic…
[23] = group: developmental, developmental / developmental malformation / bone / incomplete ossification + systemic / in life observation / body weight / fetal weight
[24] = group: maternal, systemic / in life observation / body weight / body weight gain
[25] = group: maternal, systemic / in life observation / body weight / body weight gain + systemic / in life observation / body weight / body weight
[26] = systemic / hematology / platelet / platelet + systemic / organ weight / liver / relative to body weight + systemic / hematology / leukocyte…
[27] = systemic / organ weight / kidney / absolute + systemic / organ weight / kidney / relative to body weight
[28] = systemic / in life observation / body weight / offspring (pup) weight + systemic / in life observation / food consumption / food consumption
[29] = systemic / organ weight / heart / nos + systemic / organ weight / heart / relative to body weight
[30] = systemic / organ weight / heart / nos + systemic / organ weight / heart / relative to body weight + systemic / hematology / erythrocyte (rbc…
[31] = systemic / pathology microscopic / liver / eosinophilic focus
[32] = systemic / pathology microscopic / liver / adenoma + systemic / pathology microscopic / liver / adenoma/carcinoma combined + systemic / …
[33] = systemic / organ weight / thyroid gland / relative to body weight
[34] = systemic / organ weight / thyroid gland / relative to body weight + systemic / organ weight / liver / relative to body weight

## CC1(C)C(C=C(Cl)Cl)C1C(=O)OCc1cccc(Oc2ccccc2)c1 (configuration not stated) [Permethrin]
Rat [1]; [15]
  LEL: 25 mg/kg/day
  LOAEL: > 125 mg/kg/day
  NEL: < 25 mg/kg/day
  NOAEL: ≥ 125 mg/kg/day
Rat [1]; [16]
  LEL: 125 mg/kg/day
  LOAEL: 125 mg/kg/day
  NEL: 50 mg/kg/day
  NOAEL: 50 mg/kg/day
Mouse [2]; [17]
  LOAEL: 807 mg/kg/day
  NOAEL: < 807 mg/kg/day
Mouse [2]; [18]
  LEL: 780 mg/kg/day
  NEL: < 780 mg/kg/day
Rat [3]; systemic / in life observation / clinical signs / hypersensitivity + systemic / in life observation / clinical signs / tremors
  LOAEL: 91.5 mg/kg/day
Rat [3]; systemic / in life observation / clinical signs / hypersensitivity + systemic / in life observation / clinical signs / tremors + systemic / …
  NOAEL: 36.9 mg/kg/day
Rat [3]; [19]
  LEL: 19.4 mg/kg/day
  NEL: < 19.4 mg/kg/day
Dog [4]
  LEL: 50 mg/kg/day
  LOAEL: > 250 mg/kg/day
  NEL: 10 mg/kg/day
  NOAEL: ≥ 250 mg/kg/day
Dog [5]
  LEL: 100 mg/kg/day
  LOAEL: 100 mg/kg/day
  NEL: 5 mg/kg/day
  NOAEL: 5 mg/kg/day
Mouse [6]
  LEL: 3 mg/kg/day
  LOAEL: > 714 mg/kg/day
  NEL: < 3 mg/kg/day
  NOAEL: ≥ 714 mg/kg/day
Rat [7]; systemic / hematology / platelet / platelet + systemic / pathology microscopic / liver / hypertrophy + systemic / pathology microscopic / …
  LEL: 50 mg/kg/day
Rat [7]; systemic / in life observation / clinical signs / tremors
  LOAEL: 250 mg/kg/day
Rat [7]; [20]
  NEL: 10 mg/kg/day
  NOAEL: 50 mg/kg/day
Rat [8]; [21]
  LEL: 150 mg/kg/day
  LOAEL: 150 mg/kg/day
  NEL: 50 mg/kg/day
  NOAEL: 50 mg/kg/day
Rat [8]; [22]
  LEL: 150 mg/kg/day
  LOAEL: 150 mg/kg/day
  NEL: 50 mg/kg/day
  NOAEL: 50 mg/kg/day
rabbit; group: developmental, developmental / developmental malformation / bone / incomplete ossification
  LOAEL: 1200 mg/kg/day
rabbit; [23]
  LEL: 1200 mg/kg/day
  NEL: 600 mg/kg/day
  NOAEL: 600 mg/kg/day
rabbit; [24]
  LOAEL: 600 mg/kg/day
  NOAEL: < 600 mg/kg/day
rabbit; [25]
  LEL: 600 mg/kg/day
  NEL: < 600 mg/kg/day
Mouse [9]; [26]
  LOAEL: > 287 mg/kg/day
  NOAEL: ≥ 287 mg/kg/day
Mouse [9]; [27]
  LEL: 26.9 mg/kg/day
  NEL: < 26.9 mg/kg/day

## CCCCCCCCCc1ccc(OP(Oc2ccc(CCCCCCCCC)cc2)Oc2ccc(CCCCCCCCC)cc2)cc1 [Phenol, nonyl-, phosphite (3:1)]
Rat [10]; [28]
  LOAEL: > 500 mg/kg/day
  NEL: 50 mg/kg/day
  NOAEL: ≥ 500 mg/kg/day
Rat [10]; systemic / in life observation / food consumption / food consumption
  LEL: 167 mg/kg/day

## O=C([O-])CF.[Na+] [Sodium fluoroacetate]
Rat [11]; [29]
  NEL: 0.05 mg/kg/day
  NOAEL: 0.05 mg/kg/day
Rat [11]; [30]
  LEL: 0.2 mg/kg/day
  LOAEL: 0.2 mg/kg/day

## Cc1[nH]c(=O)n(C(C)(C)C)c(=O)c1Cl [Terbacil]
Rat [12]; systemic / organ weight / liver / absolute + systemic / organ weight / liver / relative to body weight + systemic / in life observation / …
  LOAEL: 83 mg/kg/day
Rat [12]; systemic / organ weight / liver / absolute + systemic / organ weight / liver / relative to body weight + systemic / pathology microscopic / …
  NOAEL: 1.4 mg/kg/day
Rat [12]; [31]
  LEL: 0.9 mg/kg/day
  NEL: < 0.9 mg/kg/day
Mouse [13]; [32]
  LEL: 7.2 mg/kg/day
  NEL: < 7.2 mg/kg/day
Mouse [13]; systemic / pathology microscopic / liver / hyperplastic nodule (pre-neoplastic)
  LOAEL: 1070 mg/kg/day
Mouse [13]; systemic / pathology microscopic / liver / hyperplastic nodule (pre-neoplastic) + systemic / pathology microscopic / liver / adenoma + …
  NOAEL: 179 mg/kg/day
Dog [14]; [33]
  LEL: 6.25 mg/kg/day
  LOAEL: 6.25 mg/kg/day
Dog [14]; [34]
  NEL: 1.25 mg/kg/day
  NOAEL: 1.25 mg/kg/day
